{"source": "ChEMBL document CHEMBL5506010", "about": "“Butyrylcholinesterase-Activated Near-Infrared Fluorogenic Probe for In Vivo Theranostics of Alzheimer's Disease” (J Med Chem, 2024)", "key": {"[1]": {"assay": "Toxicity in APP/PS1 transgenic AD mouse model assessed as heart damage administered intravenously once every 2 days for 10 times and measured on day 30 by H and E staining based analysis", "assay_type": "tissue-based", "details": "in vivo, iv, 720 h, time 30 day"}, "Cholinesterase [2]": {"target": "T1, Cholinesterase (Homo sapiens, UniProt P06276)", "T1 sequence (P06276 whole entry)": "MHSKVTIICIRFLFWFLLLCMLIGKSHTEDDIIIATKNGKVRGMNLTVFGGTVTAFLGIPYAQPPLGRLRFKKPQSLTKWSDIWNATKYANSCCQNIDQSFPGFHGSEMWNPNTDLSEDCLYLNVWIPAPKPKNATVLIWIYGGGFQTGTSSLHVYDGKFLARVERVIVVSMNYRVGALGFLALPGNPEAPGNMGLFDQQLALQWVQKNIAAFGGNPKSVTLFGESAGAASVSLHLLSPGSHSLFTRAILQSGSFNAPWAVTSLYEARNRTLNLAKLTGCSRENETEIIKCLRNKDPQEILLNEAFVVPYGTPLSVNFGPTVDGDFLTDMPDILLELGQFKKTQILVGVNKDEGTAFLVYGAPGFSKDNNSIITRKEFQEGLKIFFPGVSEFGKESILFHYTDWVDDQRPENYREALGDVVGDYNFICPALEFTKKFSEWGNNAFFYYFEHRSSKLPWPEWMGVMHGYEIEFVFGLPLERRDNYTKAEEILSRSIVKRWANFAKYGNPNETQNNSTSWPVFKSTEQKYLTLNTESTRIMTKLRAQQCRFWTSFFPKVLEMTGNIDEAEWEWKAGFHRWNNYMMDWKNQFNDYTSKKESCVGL", "assay": "Binding affinity to BChE (unknown origin) in PBS assessed as maximum initial reaction rate by fluorometric method"}, "SH-SY5Y [3]": {"tested_on": "SH-SY5Y", "assay": "Neuroprotective activity against amyloid-beta (1 to 42)-induced human SH-SY5Y cells assessed as increase in ACh level in cell lysate at 10 to 20 uM incubated for 24 hrs by ELISA", "assay_type": "functional, cell-based", "details": "dose 10-20 µM"}, "HT-22 [4]": {"tested_on": "HT-22", "assay": "Inhibition of H2O2-induced ROS release in mouse HT-22 cells assessed as decrease in green fluorescence at 1 to 10 uM preincubated for 1 hrs followed by H2O2 addition and measured after 24 hrs by DCFH-DA based confocal laser scanning microscopic analysis", "assay_type": "functional, cell-based", "details": "dose 1-10 µM, time 25.0 hrs"}, "[5]": {"assay": "Drug uptake in brain of 6 weeks old AD-mouse model assessed as increase in fluorescence at 100 uM, iv by fluorescence scanning analysis", "assay_type": "ADME, organism-based", "details": "in vivo"}, "PC-12 [6]": {"tested_on": "PC-12", "assay": "Binding affinity to BChE in rat PC-12 cells at 10 uM incubated for 1 hrs by fluorescence based confocal laser scanning microscopic analysis", "assay_type": "cell-based"}, "[7]": {"assay": "Drug accumulation in brain of APP/PS1 transgenic AD-mouse model at 100 uM, iv measured at 5 to 60 mins by fluorescence imaging analysis", "assay_type": "ADME, organism-based", "details": "in vivo, time 5-60 min"}, "Cholinesterase [8]": {"target": "T1, Cholinesterase", "assay": "Binding affinity to BChE (unknown origin) in PBS assessed as maximum emission wavelength at 710 nm by fluorescence spectra analysis"}, "Mus musculus [9]": {"tested_on": "Mus musculus", "assay": "Antialzheimer activity in APP/PS1 transgenic AD mouse model assessed as improvement in NC scores administered intravenously once every 2 days for 10 times and measured on day 27 by Nest construction test", "assay_type": "functional, organism-based", "details": "route iv, time 27.0 day"}, "PC-12 [10]": {"tested_on": "PC-12", "assay": "Binding affinity to BChE in rat PC-12 cells assessed as increase in fluorescence intensity preincubated with tacrine for 24 hrs followed by compound addition and measured after 1 hrs by fluorescence based confocal laser scanning microscopic analysis", "assay_type": "cell-based"}, "[11]": {"assay": "Stability of compound in PBS at pH 7.4 measured after 72 hrs by HPLC analysis", "assay_type": "physicochemical", "details": "buffer, pH 7.4, 72 h"}, "HT-22 [12]": {"tested_on": "HT-22", "assay": "Inhibition of H2O2-induced ROS release in mouse HT-22 cells assessed as increase in red fluorescence at 1 to 10 uM preincubated for 1 hrs followed by H2O2 addition and measured after 24 hrs by DCFH-DA based confocal laser scanning microscopic analysis", "assay_type": "functional, cell-based", "details": "dose 1-10 µM, time 25.0 hrs"}, "PC-12 [13]": {"tested_on": "PC-12", "assay": "Binding affinity to BChE in rat PC-12 cells assessed as increase in fluorescence intensity preincubated with S11-1014 for 24 hrs followed by compound addition and measured after 1 hrs by fluorescence based confocal laser scanning microscopic analysis", "assay_type": "cell-based"}, "Mus musculus [14]": {"tested_on": "Mus musculus", "assay": "Antialzheimer activity in APP/PS1 transgenic AD mouse model assessed as improvement in memory administered intravenously once every 2 days for 10 times and measured on day 26 by Y maze test", "assay_type": "functional, organism-based", "details": "route iv, time 26.0 day"}, "[15]": {"assay": "Neurotoxicity in mouse HT-22 cells assessed as reduction in cell viability at 50 uM", "assay_type": "toxicity, cell-based", "details": "ht-22, 50 µM"}, "[16]": {"target": "Cholinesterase (Mus musculus) (UniProt Q03311)", "sequence (Q03311 whole entry)": "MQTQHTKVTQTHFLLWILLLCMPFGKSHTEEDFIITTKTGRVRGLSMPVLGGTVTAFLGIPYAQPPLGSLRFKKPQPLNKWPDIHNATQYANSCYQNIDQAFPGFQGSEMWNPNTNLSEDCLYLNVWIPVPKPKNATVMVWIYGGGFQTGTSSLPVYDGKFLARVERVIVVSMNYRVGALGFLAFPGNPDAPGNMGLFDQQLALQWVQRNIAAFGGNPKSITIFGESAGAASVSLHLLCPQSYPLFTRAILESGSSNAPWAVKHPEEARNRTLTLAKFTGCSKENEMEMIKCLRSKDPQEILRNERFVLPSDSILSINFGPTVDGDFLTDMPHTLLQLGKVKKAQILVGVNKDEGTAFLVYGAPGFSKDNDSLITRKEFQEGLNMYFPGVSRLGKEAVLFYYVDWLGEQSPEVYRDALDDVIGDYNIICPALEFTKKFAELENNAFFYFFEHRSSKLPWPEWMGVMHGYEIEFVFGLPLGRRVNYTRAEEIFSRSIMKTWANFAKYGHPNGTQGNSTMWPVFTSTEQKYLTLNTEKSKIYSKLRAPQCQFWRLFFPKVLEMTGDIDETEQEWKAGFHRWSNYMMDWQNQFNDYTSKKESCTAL", "assay": "Binding affinity to BChE in mouse HT-22 cells at 10 uM incubated for 1 hrs by fluorescence based confocal laser scanning microscopic analysis", "assay_type": "cell-based"}, "SH-SY5Y [17]": {"tested_on": "SH-SY5Y", "assay": "Neuroprotective activity against amyloid-beta (1 to 42)-induced cell death in human SH-SY5Y cells assessed as increase in cell survival preincubated with compound for 2 hrs followed by amyloid beta (1 to 42) addition and measured after 24 hrs by MTT assay", "assay_type": "functional, cell-based", "details": "dose 10-50 µM, time 26.0 hrs"}, "[18]": {"assay": "Drug uptake in brain of 7-month old APP/[…] transgenic AD-mouse model assessed as increase in fluorescence at 100 uM, iv measured after 1 hrs by fluorescence imaging analysis", "assay_type": "ADME, organism-based", "details": "in vivo"}, "[19]": {"assay": "Toxicity in APP/PS1 transgenic AD mouse model assessed as effect on body weight administered intravenously once every 2 days for 10 times and measured on day 30", "details": "in vivo, iv, 720 h, time 30 day"}, "Cholinesterase [20]": {"target": "T1, Cholinesterase", "assay": "Binding affinity to BChE in human SH-SY5Y cells at 10 uM incubated for 1 hrs by fluorescence based confocal laser scanning microscopic analysis", "assay_type": "cell-based"}, "Cholinesterase [21]": {"target": "T1, Cholinesterase", "assay": "Binding affinity to BChE (unknown origin) in PBS assessed as red-shift in maximum absorption to 680 nm by UV/vis absorption analysis"}, "[22]": {"assay": "Stability of compound in male ICR mouse brain at 100 uM, iv measured after 24 hrs by fluorescence microplate reader", "assay_type": "ADME, organism-based"}, "[23]": {"assay": "Toxicity in APP/PS1 transgenic AD mouse model assessed as kidney damage administered intravenously once every 2 days for 10 times and measured on day 30 by H and E staining based analysis", "assay_type": "tissue-based", "details": "in vivo, iv, 720 h, time 30 day"}, "Cholinesterase [24]": {"target": "T1, Cholinesterase", "assay": "Binding affinity to BChE (unknown origin) in PBS assessed as fold change in fluorescence intensity at 710 nm by fluorescence spectra analysis"}, "[25]": {"assay": "Selectivity ratio of fluorescence intensity for binding affinity to AChE (unknown origin) in PBS to fluorescence intensity for binding affinity to BChE (unknown origin) in PBS"}}, "note": "Active and inactive are the calls of the source. The calls are words filed in the database; no cut-off is given here.", "data": [{"smiles": "CCN(CC)Cc1ccccc1CNC(=O)c1cccc(NC(=O)c2cccc(C(=O)NCCn3cc(CCC[N+]4=C(/C=C/C5=C6Oc7cc(OC(=O)C8CC8)ccc7C=C6CCC5)C(C)(C)c5ccccc54)nn3)c2)c1.[I-]", "values": [{"measurement": "Activity", "setting": "[1]", "result": "Non-Toxic"}, {"measurement": "Activity", "setting": "Cholinesterase [2]", "result": 3.02, "unit": "µM/min"}, {"measurement": "Activity", "setting": "SH-SY5Y [3]", "result": "Active"}, {"measurement": "inhibition", "setting": "HT-22 [4]", "result": "Active"}, {"measurement": "Drug uptake", "setting": "[5]", "result": "Active"}, {"measurement": "Activity", "setting": "PC-12 [6]", "result": "Active"}, {"measurement": "Drug uptake", "setting": "[7]", "result": "Active"}, {"measurement": "Activity", "setting": "Cholinesterase [8]", "result": "Active"}, {"measurement": "Activity", "setting": "Mus musculus [9]", "result": "Active"}, {"measurement": "Activity", "setting": "PC-12 [10]", "result": "inactive"}, {"measurement": "Stability", "setting": "[11]", "result": "Stable"}, {"measurement": "inhibition", "setting": "HT-22 [12]", "result": "Active"}, {"measurement": "Activity", "setting": "PC-12 [13]", "result": "inactive"}, {"measurement": "Activity", "setting": "Mus musculus [14]", "result": "inactive"}, {"measurement": "Activity", "setting": "[15]", "result": "Non-Toxic"}, {"measurement": "Activity", "setting": "[16]", "result": "Active"}, {"measurement": "Activity", "setting": "SH-SY5Y [17]", "result": "Dose-Dependent Effect"}, {"measurement": "Drug uptake", "setting": "[18]", "result": "Active"}, {"measurement": "Activity", "setting": "[19]", "result": "Non-Toxic"}, {"measurement": "Activity", "setting": "Cholinesterase [20]", "result": "Active"}, {"measurement": "Activity", "setting": "Cholinesterase [21]", "result": "Active"}, {"measurement": "Stability", "setting": "[22]", "result": "Unstable"}, {"measurement": "Activity", "setting": "[23]", "result": "Non-Toxic"}, {"measurement": "fold change (FC)", "setting": "Cholinesterase [24]", "result": 24}, {"measurement": "Selectivity ratio", "setting": "[25]", "result": 22.8}]}]}
